# Laboratory results from patent US11325899B2, “Benzofurane and benzothiophene derivatives as PGE2 receptor modulators” (IDORSIA PHARMACEUTICALS LTD, priority 2017, dated 2022).
# Columns and labels:
# Format in all cases: cell-based
# PTGER2 (EP2) = molecular target: T1, PTGER2 (EP2) (Homo sapiens, UniProt P43116); test: hEP2 b-arrestin assay (PathHunter HEK 293 PTGER2 b-arrestin cells); conditions: antagonistic activity, beta-arrestin assay; read-out: hEP2 b-arr IC50
# T1 construct: host or cells: HEK 293 (PathHunter PTGER2 b-arrestin cell line)
# How it was run: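 PathHunter HEK293 cells with ProLink-tagged EP2 and EA-β-arrestin 2 preincubated 15 min at 37 °C with compound (10 μM-2 nM or 1 μM-0.2 nM), then stimulated 120 min with 5 μM PGE2 (EC80). β-gal complementation read by chemiluminescence; IC50 from duplicate dose-response versus DMSO.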
# EP2 receptor = molecular target: T2, EP2 receptor (Homo sapiens, UniProt P43116); test: hEP2 cAMP assay (SF295 glioblastoma cells, HTRF cAMP, PGE2 stimulation); conditions: antagonistic activity
# T2 construct: SF295 glioblastoma cells express high endogenous EP2 and no EP4; host or cells: SF295 glioblastoma cells
# How it was run: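 SF295 glioblastoma cells with endogenous EP2 and no EP4, in HBSS/HEPES/BSA with 2 mM IBMX, pre-incubated 45 min at room temperature with compound, then stimulated 30 min with 75 nM PGE2 (EC80). cAMP measured by HTRF; IC50 fitted from duplicate % cAMP versus DMSO control.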
# PTGER4 (EP4) = molecular target: T3, PTGER4 (EP4) (Homo sapiens, UniProt P35408); test: hEP4 b-arrestin assay (PathHunter HEK 293 PTGER4 b-arrestin cells); conditions: antagonistic activity, beta-arrestin assay; read-out: hEP4 b-arr IC50
# T3 construct: host or cells: HEK 293 (PathHunter PTGER4 b-arrestin cell line)
# How it was run: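 PathHunter HEK 293 cells expressing ProLink-tagged human EP4 and EA-β-arrestin 2, seeded 24 h before. Compounds (10 μM–2 nM or 1 μM–0.2 nM) preincubated 15 min at 37 °C, then 20 nM PGE2 (EC80) for 120 min at 37 °C. β-gal complementation luminescence read; IC50 from duplicate dose-response curves versus DMSO control.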
# T3 sequence (P35408 whole entry): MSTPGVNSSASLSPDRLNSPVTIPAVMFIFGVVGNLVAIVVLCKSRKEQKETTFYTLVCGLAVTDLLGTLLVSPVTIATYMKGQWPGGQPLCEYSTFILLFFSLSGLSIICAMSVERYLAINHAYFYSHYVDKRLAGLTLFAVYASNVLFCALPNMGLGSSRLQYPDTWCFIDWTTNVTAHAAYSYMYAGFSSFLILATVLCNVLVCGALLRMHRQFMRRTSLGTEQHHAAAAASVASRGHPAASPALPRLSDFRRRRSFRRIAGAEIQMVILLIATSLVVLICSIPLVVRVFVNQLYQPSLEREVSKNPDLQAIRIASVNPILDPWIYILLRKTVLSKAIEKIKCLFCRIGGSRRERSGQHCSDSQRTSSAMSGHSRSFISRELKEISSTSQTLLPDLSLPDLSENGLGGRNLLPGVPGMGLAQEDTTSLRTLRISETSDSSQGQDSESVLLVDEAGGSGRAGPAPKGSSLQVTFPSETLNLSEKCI
# T2 sequence (P43116 whole entry): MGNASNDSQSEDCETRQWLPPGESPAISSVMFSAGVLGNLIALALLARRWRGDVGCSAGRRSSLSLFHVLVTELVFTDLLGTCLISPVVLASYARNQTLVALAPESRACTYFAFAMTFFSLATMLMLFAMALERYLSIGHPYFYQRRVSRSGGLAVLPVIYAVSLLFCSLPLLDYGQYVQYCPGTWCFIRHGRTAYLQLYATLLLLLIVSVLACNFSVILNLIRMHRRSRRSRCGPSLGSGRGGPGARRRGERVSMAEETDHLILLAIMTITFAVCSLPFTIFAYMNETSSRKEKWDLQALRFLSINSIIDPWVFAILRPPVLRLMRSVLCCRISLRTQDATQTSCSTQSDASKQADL
# T1 sequence (P43116 whole entry): as above
SMILES,IC50 (PTGER2 (EP2)),IC50 (EP2 receptor),IC50 (PTGER4 (EP4))
"CCCCOc1cc(-c2cc(NCCc3c(C)sc4c(C)cc(F)cc34)ncn2)cc(F)c1C(=O)O [Example 144, 2-Butoxy-6-fluoro-4-{6-[2-(5-fluoro-2,7-dimethyl-benzo[b]thiophen-3-yl)-ethylamino]-pyrimidin-4-yl}-benzoic acid]",26 nM,26 nM,92 nM
"COc1ccc(F)c2c(CCNc3cc(-c4ccc(C(=O)O)c(OC5CCC5)c4F)ncn3)c(C)sc12 [Example 146, 2-Cyclobutoxy-3-fluoro-4-{6-[2-(4-fluoro-7-methoxy-2-methyl-benzo[b]thiophen-3-yl)-ethylamino]-pyrimidin-4-yl}-benzoic acid]",47 nM,47 nM,357 nM
"COc1cc(Cl)cc2c(CCNc3cc(-c4ccc(C(=O)O)c(OC5CCC5)c4F)ncn3)c(C)oc12 [Example 147, 4-{6-[2-(5-Chloro-7-methoxy-2-methyl-benzofuran-3-yl)-ethylamino]-pyrimidin-4-yl}-2-cyclobutoxy-3-fluoro-benzoic acid]",213 nM,117 nM,873 nM
"Cc1sc2c(C)ccc(F)c2c1CCNc1cc(-c2cc(F)c(C(=O)O)c(OC3CCC3)c2)ncn1 [Example 148, 2-Cyclobutoxy-6-fluoro-4-{6-[2-(4-fluoro-2,7-dimethyl-benzo[b]thiophen-3-yl)-ethylamino]-pyrimidin-4-yl}-benzoic acid]",30 nM,109 nM,43 nM
"COc1ccc(F)c2c(CCNc3cc(-c4cc(F)c(C(=O)O)c(OC5CCC5)c4)ncn3)c(C)sc12 [Example 149, 2-Cyclobutoxy-6-fluoro-4-{6-[2-(4-fluoro-7-methoxy-2-methyl-benzo[b]thiophen-3-yl)-ethylamino]-pyrimidin-4-yl}-benzoic acid]",13 nM,114 nM,67 nM
"COc1cc(F)c(F)c2c(CCNc3cc(-c4cc(F)c(C(=O)O)c(OC5CCC5)c4)ncn3)c(C)oc12 [Example 150, 2-Cyclobutoxy-4-{6-[2-(4,5-difluoro-7-methoxy-2-methyl-benzofuran-3-yl)-ethylamino]-pyrimidin-4-yl}-6-fluoro-benzoic acid]",109 nM,97 nM,363 nM
"COc1cc(Cl)cc2c(CCNc3cc(-c4cc(F)c(C(=O)O)c(OC5CCC5)c4)ncn3)c(C)oc12 [Example 151, 4-{6-[2-(5-Chloro-7-methoxy-2-methyl-benzofuran-3-yl)-ethylamino]-pyrimidin-4-yl}-2-cyclobutoxy-6-fluoro-benzoic acid]",60 nM,95 nM,163 nM
"COc1ccc(Cl)c2c(CCNc3cc(-c4ccc(C(=O)O)c(OC5CCCC5)c4)ncn3)c(C)sc12 [Example 153, 4-{6-[2-(4-Chloro-7-methoxy-2-methyl-benzo[b]thiophen-3-yl)-ethylamino]-pyrimidin-4-yl}-2-cyclopentyloxy-benzoic acid]",46 nM,212 nM,157 nM

# The next lines start with the values.
IC50 (PTGER2 (EP2)),IC50 (EP2 receptor),IC50 (PTGER4 (EP4)),SMILES
52 nM,86 nM,63 nM,"CCOc1cc(-c2cc(NCCc3c(C)sc4c(C)cc(F)cc34)ncn2)ccc1OCCC(=O)O [Example 143, 3-(2-Ethoxy-4-{6-[2-(5-fluoro-2,7-dimethyl-benzo[b]thiophen-3-yl)-ethylamino]-pyrimidin-4-yl}-phenoxy)-propionic acid]"
27 nM,84 nM,337 nM,"Cc1sc2c(C)cc(F)cc2c1CCNc1cc(-c2ccc(C(=O)O)c(OC3CCCC3)c2)ncn1 [Example 152, 2-Cyclopentyloxy-4-{6-[2-(5-fluoro-2,7-dimethyl-benzo[b]thiophen-3-yl)-ethylamino]-pyrimidin-4-yl}-benzoic acid]"
47 nM,70 nM,911 nM,"Cc1oc2c(C)cc(F)cc2c1CCNc1cc(-c2ccc(C(=O)O)c(OC3CCCC3)c2)ncn1 [Example 154, 2-Cyclopentyloxy-4-{6-[2-(5-fluoro-2,7-dimethyl-benzofuran-3-yl)-ethylamino]-pyrimidin-4-yl}-benzoic acid]"
18 nM,87 nM,47 nM,"CCOc1cc(-c2cc(NCCc3c(C)sc4c(C)cc(F)cc34)ncn2)ccc1-c1noc(=O)[nH]1 [Example 155, 3-(2-Ethoxy-4-{6-[2-(5-fluoro-2,7-dimethyl-benzo[b]thiophen-3-yl)-ethylamino]-pyrimidin-4-yl}-phenyl)-[1,2,4]oxadiazol-5(4H)-one [tautomeric form: 3-(2-ethoxy-4-(6-((2-(5-fluoro-2,7-dimethylbenzo[b]thiophen-3-yl)ethyl)amino)pyrimidin-4-yl)phenyl)-[1,2,4]oxadiazol-5-ol]]"
5 nM,10 nM,26 nM,"CCOc1cc(-c2cc(NCCc3c(C)sc4c(C)cc(F)cc34)ncn2)sc1C(=O)NS(N)(=O)=O [Example 156, 3-Ethoxy-5-(6-((2-(5-fluoro-2,7-dimethylbenzo[b]thiophen-3-yl)ethyl)amino)pyrimidin-4-yl)-N-sulfamoylthiophene-2-carboxamide]"
8 nM,18 nM,42 nM,"CCOc1cc(-c2cc(NCCc3c(C)sc4c(C)cc(F)cc34)ncn2)sc1C(=O)NS(C)(=O)=O [Example 157, N-(3-Ethoxy-5-{6-[2-(5-fluoro-2,7-dimethyl-benzo[b]thiophen-3-yl)-ethylamino]-pyrimidin-4-yl}-thiophene-2-carbonyl)-methanesulfonamide]"
6 nM,4 nM,7 nM,"CCOc1cc(-c2cc(NCCc3c(C)sc4c(C)cc(F)cc34)ncn2)sc1-c1nnn[nH]1 [Example 158, {6-[4-Ethoxy-5-(1H-tetrazol-5-yl)-thiophen-2-yl]-pyrimidin-4-yl}-[2-(5-fluoro-2,7-dimethyl-benzo[b]thiophen-3-yl)-ethyl]-amine]"
15 nM,10 nM,16 nM,"CCOc1nc(-c2cc(NCCc3c(C)sc4c(C)cc(F)cc34)ncn2)sc1C(=O)O [Example 160, 4-Ethoxy-2-{6-[2-(5-fluoro-2,7-dimethyl-benzo[b]thiophen-3-yl)-ethylamino]-pyrimidin-4-yl}-thiazole-5-carboxylic acid]"
61 nM,27 nM,256 nM,"CCc1nc(-c2cc(NCCc3c(C)sc4c(C)cc(F)cc34)ncn2)sc1C(=O)O [Example 161, 4-Ethyl-2-{6-[2-(5-fluoro-2,7-dimethyl-benzo[b]thiophen-3-yl)-ethylamino]-pyrimidin-4-yl}-thiazole-5-carboxylic acid]"
6 nM,35 nM,5 nM,"CCOc1nc(-c2cc(NCCc3c(C)sc4c(C)cc(F)cc34)ncn2)sc1-c1noc(=O)[nH]1 [Example 162, 3-(4-Ethoxy-2-{6-[2-(5-fluoro-2,7-dimethyl-benzo[b]thiophen-3-yl)-ethylamino]-pyrimidin-4-yl}-thiazol-5-yl)-[1,2,4]oxadiazol-5(4H)-one [tautomeric form: 3-(4-ethoxy-2-(6-((2-(5-fluoro-2,7-dimethylbenzo[b]thiophen-3-yl)ethyl)amino)pyrimidin-4-yl)thiazol-5-yl)-[1,2,4]oxadiazol-5-ol]]"
